In US20240208961A1, “EIF4E INHIBITORS AND USES THEREOF” (PIC Therapeutics, Inc., priority 2022, published 2024):
Several values for one entry are separate records, joined by “and”; a condition that tells them apart may be missing. Equal entries are not always repeated. Where two headings read alike, the source gives them in different places.

Assays:
[1] = Pharmacokinetic studies of certain compounds in female Balb/c mice (Example 5); type: in vivo
Protocol: Pharmacokinetic studies were performed using Balb/c mice, 15-20 g, 6-9 weeks, female, N=9, purchased from Jihui Laboratory Animal Co. LTD. For compound I-29, Balb/c mice, 19-21 g, 9-11 weeks, female, N=9, were used. The mice were fasted overnight and fed at 4 h post dosing.
Animals were dosed via oral gavage (PO) or tail vein injection (IV) with compound. Sampling occurred at 0.083, 0.25, 0.5, 1, 2, 4, 8, and 24 h post dose (8 time points). The animals were restrained manually at the designated time points. Approx. […] of blood was taken from the animals via facial vein for semi-serial bleeding into tubes with K2EDTA. Blood samples were put on ice and centrifuged at 4° C. (2000 g, 5 min) to obtain plasma within 15 min after sample collection. Plasma samples were stored in dry ice temporarily and at approximately −70° C. until analysis.
For oral gavage, the compound was dosed as a suspension in 1% sodium carboxymethyl cellulose (CMC) and 0.2% Tween 80 in water. For 23.8 mg/kg and 30 mg/kg doses, 3 mg/mL was used; for 50 mg/kg doses, 5 mg/mL was used; and for 100 mg/kg doses, 10 mg/mL was used.
For IV administration, the compound was dosed as a solution in 5% DMSO, 5% Solutol HS15 and 90% saline. For 1 mg/kg and 1.48 mg/kg doses, 0.2 mg/mL was used.
Plasma samples were analyzed using LC-MS using a calibration curve of known concentrations.
The results of these studies are summarized in Tables 11-21 below and in FIGS. 2-8. […] BQL=below quantifiable limit for compound in female Balb/c mouse plasma samples. NA=not available. PK parameters were estimated by non-compartmental model using WinNonlin 8.2. If the adjusted rsq (linear regression coefficient of the concentration value on the terminal phase) was less than 0.9, T1/2 might not have been accurately estimated. F value was determined by the following equation: • If AUClast/AUCINF>80%:
F=(AUCINF-EX×DOSEIV)/(AUCINF-IV×DOSEEX)[…] • If AUClast/AUCINF<80% or AUCINF not available:
F=(AUClast-EX×DOSEIV)/(AUClast-IV×DOSEEX)*1000

NCIH510A = assay: Cell viability assay, suspension cell line, 5 day Alamar Blue (Example 8): NCIH510A; type: cell-based; settings: Homo sapiens, NCI-H510A, 120 h, Small Cell Lung Cancer Cell Line
Protocol: (§1) Cell viability assays were performed on certain compounds of the disclosure, according to the following procedure.
(§2) Cell line specific media conditions used:
The procedure for suspension cell line compound screening was as follows:
Day 1: Cell Seeding and Compound Dosing
(§3) • Cells were seeded 2×10^5 in 96-well cell culture treated tissue culture plates: 87.5 μL/well; MM.1 S, MM,1R, NCIH510A. • 5-fold serial dilution (8 point) of each compound in DMSO 0-25 mM in compound storage plates was prepared (stored at −80° C. if not to be used immediately). • Cells were rinsed with 1% FBS Media (appropriate to cell line as described above) and replaced with 87.5 μL media prior to dosing. • DMSO compound dilution series was diluted in 1% FBS media (appropriate to cell line as described above)—2 μL in 248 μL to give an 8× final concentration. • Cells were dosed 12.5 μL/well in triplicate to give final dose curved on cells 0-25 μM. • Media blank 100 μL/well×8 was set up. • All plates were incubated at 37° C.
Day 6: 5 Day Viability Assay
(§4) • Alamar Blue viability reagent was added (10 μL per well) and incubated for 3 hours at 37° C. prior to fluorescence detection (Ex560 nm/Em590 nm) on a Varioskan Lux multimode plate reader.
(§5) Results from cell viability assays are summarized in Table 23, wherein A represents IC50≤1 μM; B represents 1 μM<IC50≤8 μM; and C represents IC50>8 μM. Blank cells indicate that the compound was not tested in a particular assay.

T47D = assay: Cell viability assay, adherent cell line, 5 day Alamar Blue (Example 8): T47D; type: cell-based; settings: Homo sapiens, 120 h, Breast Cancer Cell Viability
Protocol: as §1, §2
The procedure for adherent cell line compound screening was as follows:
• Cells were seeded in 96-well cell culture treated tissue culture plates: ZR-75-1, NIHOVCAR3, T47D, and LOVO cells 4000 cells/well; and HPAFII 3000 cell/well
Day 3: Compound Dilution and Dosing
as §3, with “•” for “• Cells were seeded 2×10^5 in 96-well cell culture treated tissue culture plates: 87.5 μL/well; MM.1 S, MM,1R, NCIH510A. •”, “dosing. HPAFII was screened in normal 10% FBS Media.” for “dosing.”
Day 8: 5 Day Viability Assay
as §4, §5

[2] = I-3 IV 1 mg/kg, 24 hr, BQL = below quantifiable limit of 1.00 ng/mL

CC(C)Cc1sc(Nc2ncc(-c3cccs3)cc2C(=O)O)nc1C1CCCCC1 [Compound I-3]
Plasma concentration Individual ([1]; I-3 IV 1 mg/kg, 0.083 hr, 1 mg/kg): 1790 ng/mL and 2660 ng/mL
Plasma concentration Individual ([1]; I-3 IV 1 mg/kg, 0.25 hr, 1 mg/kg): 633 ng/mL and 539 ng/mL
Plasma concentration Individual ([1]; I-3 IV 1 mg/kg, 0.5 hr, 1 mg/kg): 292 ng/mL and 352 ng/mL
Plasma concentration Individual ([1]; I-3 IV 1 mg/kg, 1 hr, 1 mg/kg): 101 ng/mL and 116 ng/mL
Plasma concentration Individual ([1]; I-3 IV 1 mg/kg, 2 hr, 1 mg/kg): 35.6 ng/mL and 28.1 ng/mL
Plasma concentration Individual ([1]; I-3 IV 1 mg/kg, 4 hr, 1 mg/kg): 7.05 ng/mL and 7.52 ng/mL and 21.3 ng/mL
Plasma concentration Individual ([1]; I-3 IV 1 mg/kg, 8 hr, BQL = below quantifiable limit of 1.00 ng/mL, 1 mg/kg): BQL
Plasma concentration Individual [1, 2]: BQL
Plasma concentration Mean [1, 2]: BQL
F ([1]; I-3 PO 30 mg/kg vs IV 1 mg/kg): 36.0%
Plasma concentration Individual ([1]; I-3 PO 30 mg/kg, 0.083 hr, 30 mg/kg): 69.9 ng/mL and 44.9 ng/mL
Plasma concentration Individual ([1]; I-3 PO 30 mg/kg, 0.25 hr, 30 mg/kg): 420 ng/mL and 461 ng/mL
Plasma concentration Individual ([1]; I-3 PO 30 mg/kg, 0.5 hr, 30 mg/kg): 1920 ng/mL and 1840 ng/mL
Plasma concentration Individual ([1]; I-3 PO 30 mg/kg, 1 hr, 30 mg/kg): 1520 ng/mL and 1760 ng/mL
Plasma concentration Individual ([1]; I-3 PO 30 mg/kg, 2 hr, 30 mg/kg): 1530 ng/mL and 1800 ng/mL
Plasma concentration Individual ([1]; I-3 PO 30 mg/kg, 4 hr, 30 mg/kg): 896 ng/mL and 860 ng/mL
Plasma concentration Individual ([1]; I-3 PO 30 mg/kg, 8 hr, 30 mg/kg): 124 ng/mL and 186 ng/mL
Plasma concentration Individual ([1]; I-3 PO 30 mg/kg, 24 hr, 30 mg/kg): 10.6 ng/mL and 4.10 ng/mL and 3.10 ng/mL
concentration at 0.083 hr ([1]; female, Balb/c, mouse, plasma, iv, 1 mg/kg, I-3 IV 1 mg/kg, 0.083 hr, read-out: Plasma concentration Individual): 1910 ng/mL
concentration at 0.083 hr ([1]; female, Balb/c, mouse, plasma, iv, 1 mg/kg, I-3 IV 1 mg/kg, 0.083 hr, read-out: Plasma concentration Mean): 2120 ng/mL
concentration at 0.25 hr ([1]; female, Balb/c, mouse, plasma, iv, 1 mg/kg, I-3 IV 1 mg/kg, 0.25 hr, read-out: Plasma concentration Individual): 511 ng/mL
concentration at 0.25 hr ([1]; female, Balb/c, mouse, plasma, iv, 1 mg/kg, I-3 IV 1 mg/kg, 0.25 hr, read-out: Plasma concentration Mean): 561 ng/mL
concentration at 0.5 h ([1]; female, Balb/c, mouse, plasma, iv, 1 mg/kg, I-3 IV 1 mg/kg, 0.5 hr, read-out: Plasma concentration Individual): 246 ng/mL
concentration at 0.5 h ([1]; female, Balb/c, mouse, plasma, iv, 1 mg/kg, I-3 IV 1 mg/kg, 0.5 hr, read-out: Plasma concentration Mean): 297 ng/mL
concentration at 1 h ([1]; female, Balb/c, mouse, plasma, iv, 1 mg/kg, I-3 IV 1 mg/kg, 1 hr, read-out: Plasma concentration Individual): 111 ng/mL
concentration at 1 h ([1]; female, Balb/c, mouse, plasma, iv, 1 mg/kg, I-3 IV 1 mg/kg, 1 hr, read-out: Plasma concentration Mean): 109 ng/mL
concentration at 2 h ([1]; female, Balb/c, mouse, plasma, iv, 1 mg/kg, I-3 IV 1 mg/kg, 2 hr, read-out: Plasma concentration Individual): 28.7 ng/mL
concentration at 2 h ([1]; female, Balb/c, mouse, plasma, iv, 1 mg/kg, I-3 IV 1 mg/kg, 2 hr, read-out: Plasma concentration Mean): 30.8 ng/mL
concentration at 4 h ([1]; female, Balb/c, mouse, plasma, iv, 1 mg/kg, I-3 IV 1 mg/kg, 4 hr, read-out: Plasma concentration Mean): 12 ng/mL
concentration at 8 h ([1]; female, Balb/c, mouse, plasma, iv, 1 mg/kg, I-3 IV 1 mg/kg, 8 hr, BQL = below quantifiable limit of 1.00 ng/mL, read-out: Plasma concentration Individual): 1.62 ng/mL
concentration at 8 h ([1]; female, Balb/c, mouse, plasma, iv, 1 mg/kg, I-3 IV 1 mg/kg, 8 hr, BQL = below quantifiable limit of 1.00 ng/mL, read-out: Plasma concentration Mean): 1.62 ng/mL
concentration at 0.083 hr ([1]; female, Balb/c, mouse, plasma, po, 30 mg/kg, I-3 PO 30 mg/kg, 0.083 hr, read-out: Plasma concentration Individual): 56.7 ng/mL
concentration at 0.083 hr ([1]; female, Balb/c, mouse, plasma, po, 30 mg/kg, I-3 PO 30 mg/kg, 0.083 hr, read-out: Plasma concentration Mean): 57.2 ng/mL
concentration at 0.25 hr ([1]; female, Balb/c, mouse, plasma, po, 30 mg/kg, I-3 PO 30 mg/kg, 0.25 hr, read-out: Plasma concentration Individual): 453 ng/mL
concentration at 0.25 hr ([1]; female, Balb/c, mouse, plasma, po, 30 mg/kg, I-3 PO 30 mg/kg, 0.25 hr, read-out: Plasma concentration Mean): 445 ng/mL
concentration at 0.5 hr ([1]; female, Balb/c, mouse, plasma, po, 30 mg/kg, I-3 PO 30 mg/kg, 0.5 hr, read-out: Plasma concentration Individual): 1950 ng/mL
concentration at 0.5 hr ([1]; female, Balb/c, mouse, plasma, po, 30 mg/kg, I-3 PO 30 mg/kg, 0.5 hr, read-out: Plasma concentration Mean): 1900 ng/mL
concentration at 1 hr ([1]; female, Balb/c, mouse, plasma, po, 30 mg/kg, I-3 PO 30 mg/kg, 1 hr, read-out: Plasma concentration Individual): 1490 ng/mL
concentration at 1 hr ([1]; female, Balb/c, mouse, plasma, po, 30 mg/kg, I-3 PO 30 mg/kg, 1 hr, read-out: Plasma concentration Mean): 1590 ng/mL
concentration at 2 hr ([1]; female, Balb/c, mouse, plasma, po, 30 mg/kg, I-3 PO 30 mg/kg, 2 hr, read-out: Plasma concentration Individual): 1750 ng/mL
concentration at 2 hr ([1]; female, Balb/c, mouse, plasma, po, 30 mg/kg, I-3 PO 30 mg/kg, 2 hr, read-out: Plasma concentration Mean): 1690 ng/mL
concentration at 4 hr ([1]; female, Balb/c, mouse, plasma, po, 30 mg/kg, I-3 PO 30 mg/kg, 4 hr, read-out: Plasma concentration Individual): 991 ng/mL
concentration at 4 hr ([1]; female, Balb/c, mouse, plasma, po, 30 mg/kg, I-3 PO 30 mg/kg, 4 hr, read-out: Plasma concentration Mean): 916 ng/mL
concentration at 8 hr ([1]; female, Balb/c, mouse, plasma, po, 30 mg/kg, I-3 PO 30 mg/kg, 8 hr, read-out: Plasma concentration Individual): 182 ng/mL
concentration at 8 hr ([1]; female, Balb/c, mouse, plasma, po, 30 mg/kg, I-3 PO 30 mg/kg, 8 hr, read-out: Plasma concentration Mean): 164 ng/mL
concentration at 24 hr ([1]; female, Balb/c, mouse, plasma, po, 30 mg/kg, I-3 PO 30 mg/kg, 24 hr, read-out: Plasma concentration Mean): 5.93 ng/mL
AUC(0-inf) ([1]; mouse, plasma, I-3 IV 1 mg/kg): 834 ng·h/mL
AUC(0-t) ([1]; mouse, plasma, I-3 IV 1 mg/kg): 831 ng·h/mL
C0 ([1]; mouse, plasma, I-3 IV 1 mg/kg): 4100 ng/mL
MRT inf ([1]; mouse, plasma, I-3 IV 1 mg/kg): 0.58 h
MRT last ([1]; mouse, plasma, I-3 IV 1 mg/kg): 0.542 h
clearance ([1]; mouse, plasma, I-3 IV 1 mg/kg): 20 mL/min/kg
half-life ([1]; mouse, plasma, I-3 IV 1 mg/kg): 1.41 h
Vd ([1]; mouse, plasma, I-3 IV 1 mg/kg, read-out: Vss): 0.695 L/kg
AUC(0-inf) ([1]; mouse, plasma, I-3 PO 30 mg/kg): 9000 ng·h/mL
AUC(0-t) ([1]; mouse, plasma, I-3 PO 30 mg/kg): 8980 ng·h/mL
Cmax ([1]; mouse, plasma, I-3 PO 30 mg/kg): 1900 ng/mL
MRT inf ([1]; mouse, plasma, I-3 PO 30 mg/kg): 3.62 h
MRT last ([1]; mouse, plasma, I-3 PO 30 mg/kg): 3.55 h
Tmax ([1]; mouse, plasma, I-3 PO 30 mg/kg): 0.5 h
half-life ([1]; mouse, plasma, I-3 PO 30 mg/kg): 2.77 h
IC50 (NCIH510A): 1 to 8 µM
IC50 (T47D): 1 to 8 µM
